Results from ChEMBL document CHEMBL1201862, “PubChem BioAssay data set” (2004).
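A five-concentration, 48-hour dose response in 96-well plates underlies each endpoint, interpolated linearly between surrounding concentrations. Abbreviation: GI50, concentration required for 50% inhibition of growth.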 Calls of active or inactive are those of the source. No stated cut-off is given here; in the data, active = GI50 up to about 1.1 µM and inactive = higher.

Key:
Assay in all cases: inhibition of tumour cell growth, NCI panel, 48 h
[1] = tested on: A549
[2] = tested on: COLO 205
[3] = tested on: HOP-62
[4] = tested on: IGROV-1
[5] = tested on: NCI-H23
[6] = tested on: NCI-H460
[7] = tested on: OVCAR-8
[8] = tested on: RPMI-8226
[9] = tested on: SF-268
[10] = tested on: SF-295
[11] = tested on: SK-MEL-2
[12] = tested on: SK-OV-3
[13] = tested on: SN12C
[14] = tested on: U-251
[15] = tested on: UACC-257
[16] = tested on: UACC-62
[17] = tested on: UO-31
[18] = tested on: KM12
[19] = tested on: OVCAR-3
[20] = tested on: OVCAR-4

| SMILES | GI50 [1] | GI50 [2] | GI50 [3] | GI50 [4] | GI50 [5] | GI50 [6] | GI50 [7] | GI50 [8] | GI50 [9] | GI50 [10] | GI50 [11] | GI50 [12] | GI50 [13] | GI50 [14] | GI50 [15] | GI50 [16] | GI50 [17] | GI50 [18] | GI50 [19] | GI50 [20] |
| --- | --- | --- | --- | --- | --- | --- | --- | --- | --- | --- | --- | --- | --- | --- | --- | --- | --- | --- | --- | --- |
| N#CCCN(CCN(CCC#N)C(=O)Nc1ccccc1)C(=O)Nc1ccccc1 | 80.2 µM (inactive) | > 100 µM (inactive) | 20.8 µM (inactive) | 68.9 µM (inactive) | 61.4 µM (inactive) | 68.5 µM (inactive) | 57.5 µM (inactive) | > 100 µM (inactive) | 28.5 µM (inactive) | 31.8 µM (inactive) | > 100 µM (inactive) | 28.6 µM (inactive) | > 100 µM (inactive) | 39.6 µM (inactive) | > 100 µM (inactive) | > 100 µM (inactive) | 85.7 µM (inactive) | – | – | – |
| O=c1[nH]cnc2c(COCCCO)c[nH]c12 | > 100 µM (inactive) | > 100 µM (inactive) | > 100 µM (inactive) | > 100 µM (inactive) | > 100 µM (inactive) | – | > 100 µM (inactive) | > 100 µM (inactive) | > 100 µM (inactive) | > 100 µM (inactive) | > 100 µM (inactive) | > 100 µM (inactive) | > 100 µM (inactive) | > 100 µM (inactive) | > 100 µM (inactive) | > 100 µM (inactive) | > 100 µM (inactive) | > 100 µM (inactive) | > 100 µM (inactive) | – |
| O=C(NC1CCCCC1)NC12CC3CC(CC(F)(C3)C1)C2 | > 100 µM (inactive) | > 100 µM (inactive) | > 100 µM (inactive) | > 100 µM (inactive) | > 100 µM (inactive) | > 100 µM (inactive) | > 100 µM (inactive) | > 100 µM (inactive) | – | – | > 100 µM (inactive) | > 100 µM (inactive) | – | > 100 µM (inactive) | > 100 µM (inactive) | > 100 µM (inactive) | 55.3 µM (inactive) | > 100 µM (inactive) | > 100 µM (inactive) | – |
| Clc1ccc(OC2CCO2)cc1Cl (stereo not given) | > 100 µM (inactive) | 90.8 µM (inactive) | 78.9 µM (inactive) | > 100 µM (inactive) | 83.8 µM (inactive) | 47.2 µM (inactive) | 96.2 µM (inactive) | 43.5 µM (inactive) | 78.2 µM (inactive) | > 100 µM (inactive) | – | > 100 µM (inactive) | 88.5 µM (inactive) | 88.3 µM (inactive) | 40 µM (inactive) | 72.6 µM (inactive) | 62.4 µM (inactive) | 76.6 µM (inactive) | 57.8 µM (inactive) | 60 µM (inactive) |
| CCNC(=S)N/N=C/c1ccccn1 | 7.62 µM (inactive) | 3.24 µM (inactive) | 6.12 µM (inactive) | 5.11 µM (inactive) | 6.56 µM (inactive) | 4.94 µM (inactive) | 3.3 µM (inactive) | – | 2.4 µM (inactive) | 7.14 µM (inactive) | 42.2 µM (inactive) | 5.07 µM (inactive) | 4.97 µM (inactive) | 6.55 µM (inactive) | 6.65 µM (inactive) | 9.98 µM (inactive) | 2.44 µM (inactive) | 8.67 µM (inactive) | 0.729 µM (active) | 1.29 µM (inactive) |
| OC1C2CCC3C2CC(C(O)(c2ccccc2)c2ccccc2)C13 (stereo not given) | 36.6 µM (inactive) | 18.5 µM (inactive) | 63.2 µM (inactive) | 23.9 µM (inactive) | 44.5 µM (inactive) | 41.3 µM (inactive) | 93.1 µM (inactive) | – | > 100 µM (inactive) | 28 µM (inactive) | 18.4 µM (inactive) | > 100 µM (inactive) | 21.9 µM (inactive) | 70.3 µM (inactive) | 24.6 µM (inactive) | 47.5 µM (inactive) | 67.6 µM (inactive) | 61.7 µM (inactive) | 29.9 µM (inactive) | > 100 µM (inactive) |
| O=C1c2ccccc2C2(c3ccc(Cl)cc3)N[C@H]3CCCC[C@@H]3N12 (stereo not given in full) | 77.6 µM (inactive) | > 100 µM (inactive) | 41.1 µM (inactive) | > 100 µM (inactive) | > 100 µM (inactive) | – | > 100 µM (inactive) | 54.1 µM (inactive) | 48.8 µM (inactive) | > 100 µM (inactive) | – | > 100 µM (inactive) | > 100 µM (inactive) | > 100 µM (inactive) | > 100 µM (inactive) | > 100 µM (inactive) | > 100 µM (inactive) | 85.5 µM (inactive) | > 100 µM (inactive) | 84.3 µM (inactive) |
| CN(C)CC(CO)(CN(C)C)CN(C)C | > 100 µM (inactive) | > 100 µM (inactive) | > 100 µM (inactive) | > 100 µM (inactive) | > 100 µM (inactive) | > 100 µM (inactive) | > 100 µM (inactive) | > 100 µM (inactive) | > 100 µM (inactive) | > 100 µM (inactive) | – | > 100 µM (inactive) | > 100 µM (inactive) | > 100 µM (inactive) | > 100 µM (inactive) | > 100 µM (inactive) | > 100 µM (inactive) | > 100 µM (inactive) | > 100 µM (inactive) | > 100 µM (inactive) |
| Cn1nc(-c2ccccc2)c(C(=O)/C=C/c2ccccc2)c(N2CCCC2)c1=O | 19.9 µM (inactive) | 14.9 µM (inactive) | 11.9 µM (inactive) | 21.2 µM (inactive) | 10.4 µM (inactive) | 10.3 µM (inactive) | 16.9 µM (inactive) | 6.35 µM (inactive) | 13.7 µM (inactive) | – | – | 22.7 µM (inactive) | 20.7 µM (inactive) | 12.9 µM (inactive) | – | 13.9 µM (inactive) | 21.4 µM (inactive) | – | – | – |
| COC(=O)C1CCC(=O)C(Sc2ccccc2)C1 (stereo not given) | > 100 µM (inactive) | > 100 µM (inactive) | – | 51.6 µM (inactive) | > 100 µM (inactive) | > 100 µM (inactive) | > 100 µM (inactive) | 44.3 µM (inactive) | 59.8 µM (inactive) | > 100 µM (inactive) | – | > 100 µM (inactive) | > 100 µM (inactive) | > 100 µM (inactive) | 83.8 µM (inactive) | 80.7 µM (inactive) | 21.2 µM (inactive) | > 100 µM (inactive) | > 100 µM (inactive) | > 100 µM (inactive) |
| CN(C)CC1CCC/C(=C\c2ccccc2)C1=O (stereo not given) | 19 µM (inactive) | 2.24 µM (inactive) | 19.9 µM (inactive) | 3.74 µM (inactive) | 10.2 µM (inactive) | 3.1 µM (inactive) | 3.94 µM (inactive) | – | 2.94 µM (inactive) | 19.5 µM (inactive) | 5.5 µM (inactive) | 19.8 µM (inactive) | 6.14 µM (inactive) | 15.4 µM (inactive) | 2.55 µM (inactive) | 7.01 µM (inactive) | 2.32 µM (inactive) | 1.19 µM (inactive) | 1.94 µM (inactive) | 1.6 µM (inactive) |
| COc1ccc(C(=O)c2c3cc(OC)c(OC)c(OC)c3cc[n+]2C)cc1 | 17.8 µM (inactive) | – | 28.2 µM (inactive) | 34.8 µM (inactive) | 23.7 µM (inactive) | 31.6 µM (inactive) | 35.7 µM (inactive) | 10.2 µM (inactive) | 37.9 µM (inactive) | – | 21.1 µM (inactive) | 38.4 µM (inactive) | 31.8 µM (inactive) | 40 µM (inactive) | – | – | 26 µM (inactive) | 30.4 µM (inactive) | – | – |
